This is an account of results in patent publication US6602862B1, “1-Amino-alkylcyclohexanes as trypanocidal agents” (Merz Pharma GmbH & Co., KGAA, priority 2000, dated 2003).

Molecules are shown by their SMILES. Where two headings read alike, the source gives them in different places.

The subject of series [1] is Bloodstream form T-brucei (strain 427). The series is described as follows: Growth inhibition of cultured bloodstream form T. brucei, 3 days in presence of test compounds. To be noted: for (Inhibition) (5 μg ml^−1): preliminary screen at 5 μg ml^−1, 3 days; for inhibition at 5 µg/mL: read-out: (Inhibition) (5 μg ml^−1).
Description: After determination of cell densities at each drug concentration using a hemocytometer (Weber Scientific International Ltd), drug sensitivity was expressed as a percentage of growth of control cells.
In a preliminary screen, bloodstream form T.brucei were cultured for 3 days in growth medium at pH 7.4 in the presence of aminoalkylcyclohexane derivatives at a concentration of 5 μg ml^−1.
Initially each compound was screened to determine the inhibitory effect at 5 μg ml^−1 (data in brackets). […] Each experiment was performed in triplicate, except where indicated (++). […] Values are presented as ±SD from the mean. […] All other compounds were dissolved in H2O. Control cells were treated accordingly. ND stands for not done.
For series [2] the following is noted: patients, advanced stage of the disease; cited from earlier work.
For series [3], the system named is bloodstream form of the African trypanosome, Trypanosoma brucei. The settings on record: reported recently; cited from earlier work.
Setting [4] is: Trypanosoma brucei, 72 h, pH 7.4.
Setting [5] is: concentration inhibiting growth by 50%, 3 days, 37°, pH 7.4, ±SD.
Where [6] appears, read: concentration inhibiting growth by 90%, 3 days, 37°, pH 7.4, ±SD, ++ = six experiments.
The mark [7] stands for this setting: Trypanosoma brucei, 72 h, read-out: IC90.

`C[C@@H]1CC(C)(C)C[C@@](C)(N)C1` (relative stereo) [Compound 607, 1-Amino-1,3,3,5(trans)-tetramethylcyclohexane]: the “(Inhibition) (5 μg ml^−1)” value in series [1] is listed as “(17%)”.

On to `C[C@H]1CCC[C@](C)(N)C1` (relative stereo) [Compound 625, 1-Amino-1,3 (trans)-dimethylcyclohexane], for which the “(Inhibition) (5 μg ml^−1)” value in series [1] was “(0%)”.

With `CCC[C@H]1CCC[C@](C)(N)C1` (relative stereo) [Compound 627, 1-Amino-1-methyl-3 (trans) propylcyclohexane], the “(Inhibition) (5 μg ml^−1)” value in series [1] is on record as “(17%)”.

`CC[C@H]1CCC[C@](C)(N)C1` (relative stereo) [Compound 629, 1-Amino-1-methyl-3 (trans) ethylcyclohexane]: the inhibition at 5 µg/mL in series [1] (Trypanosoma brucei, 72 h) was 2%.

For `CC[C@@H]1CC(C)(C)C[C@](C)(N)C1` (relative stereo) [Compound 632, 1-Amino-1,3,3-trimethyl-5 (cis) ethylcyclohexane], in series [1] (setting [4]), the IC50 stood at 2.92 ± 0.19 µg/mL and the IC90 turned out to be 3.8 ± 0.07 µg/mL.

For the molecule `CCC[C@H]1CC(C)(C)C[C@@](C)(N)C1` (relative stereo) [Compound 634, cis-3-Propyl-1,5,5-trimethylcyclohexylamine], the IC50 in series [1] (setting [5]) stood at 0.57 ± 0.13 µg/mL. Moreover, in series [1] (setting [6]), the IC90 is recorded as 0.77 ± 0.15++ μg ml−1.

Consider `CCC[C@H]1CC(C)(C)C[C@](C)(N)C1` (relative stereo) [Compound 635, trans-3-Propyl-1,5,5-trimethylcyclohexylamine], for which, in series [1] (setting [5]), the IC50 was 2.23 ± 0.33 µg/mL. In addition, in series [1] (setting [6]), the IC90 stood at 3.67 ± 0.06 µg/mL.

On to `CC1(C)CC(CN)CC(C)(C)C1` [Compound 580, 3,3,5,5-Tetramethylcyclohexylmethylamine], for which, in series [1] (setting [4]), the IC50 came to 1.44 ± 0.09 µg/mL and the IC90 came out at 1.89 ± 0.02 µg/mL. For the same molecule, in series [1] (setting [7]), the IC90 was less than 2 µg/mL.

For `CCCC1(N)CC(C)(C)CC(C)(C)C1` [Compound 601, 1-Amino-1-propyl-3,3,5,5-tetramethylcyclohexane], the IC50 in series [1] (setting [4]) is 1.43 ± 0.08 µg/mL. In addition, the IC90 was 1.87 ± 0.02 µg/mL in series [1] (setting [4]) and less than 2 µg/mL in series [1] (setting [7]).

With `CCCC1(C)CC(C)(C)CC(C)(N)C1` (stereo not drawn) [Compound 614, 3-Propyl-1,3,5,5-Tetramethylcyclohexylamine], in series [1] (setting [4]), the IC50 came out at 0.55 ± 0.11 µg/mL and the IC90 amounted to 0.88 ± 0.09 µg/mL.

As to `CCC1(C)CC(C)(C)CC(C)(N)C1` (stereo not drawn) [Compound 615, 1-Amino-1,3,5,5-tetramethyl-3-ethylcyclohexane], in series [1] (setting [4]), the concentration for half-maximal inhibition (IC50) was 1.45 ± 0.07 µg/mL and the concentration for an effect of 90% (IC90) turned out to be 1.93 ± 0.02 µg/mL.

Regarding `CCCC1(C)CCCC(C)(N)C1` (stereo not drawn) [Compound 617, 1-Amino-1,3-dimethyl-3-propylcyclohexane], in series [1] (setting [4]), the IC50 came to 1.54 ± 0.08 µg/mL and the IC90 turned out to be 2.33 ± 0.24 µg/mL.

On to `CCCC1(C)CC(C)CC(C)(N)C1` (stereo not drawn) [Compound 618, 1-Amino-1,3 (trans),5 (trans)-trimethyl-3(cis)-propylcyclohexane], for which, in series [1] (setting [5]), the IC50 is 2.19 ± 0.69 µg/mL. Also, the IC90 in series [1] (setting [6]) was found to be 3.59 ± 0.17 µg/mL.

Consider `CCC1(C)CCCC(C)(N)C1` (stereo not drawn) [Compound 620, 1-Amino-1,3-dimethyl-3-ethylcyclohexane], for which, in series [1] (Trypanosoma brucei, 72 h), the inhibition at 5 µg/mL is 25%.

Take `CC1(C)CCCC(C)(N)C1` (stereo not drawn) [Compound 621, 1-Amino-1,3,3-trimethylcyclohexane]: in series [1] (Trypanosoma brucei, 72 h), the inhibition at 5 µg/mL was found to be 40%.

Turning to `CCC1(C)CC(C)CC(C)(N)C1` (stereo not drawn) [Compound 622, cis-3-Ethyl-1, trans-3, trans-5-trimethylcyclohexamine], the “(Inhibition) (5 μg ml^−1)” value in series [1] is recorded as “(40%)”.

For `CCCC1(CCC)CC(C)(C)CC(C)(N)C1` (stereo not drawn) [Compound 626, 1,3,3-Trimethyl-5,5-dipropylcyclohexylamine], in series [1] (setting [4]), the IC50 is 0.25 ± 0.01 µg/mL and the IC90 was 0.29 ± 0.01 µg/mL.

As for `CCCC1CCCC(C)(N)C1` (stereo not drawn) [Compound 628, 1-Methyl-3-cis-propylcyclohexylamine], the IC50 in series [1] (setting [5]) turned out to be 1.54 ± 0.02 µg/mL. The IC90 in series [1] (setting [6]) came to 1.95 ± 0.03 µg/mL.

For the molecule `CCC1CC(C)(C)CC(C)(N)C1` (stereo not drawn) [Compound 633, 1-Amino-1,3,3-trimethyl-5 (trans) ethylcyclohexane], the inhibition at 5 µg/mL in series [1] (Trypanosoma brucei, 72 h) is 68%.

On to `CCNC1(C)CC(C)(C)CC(C)(C)C1` [Compound 639, N-Ethyl-1,3,3,5,5-pentamethylcyclohexylamine], for which, in series [1] (setting [4]), the IC50 amounted to 1.37 ± 0.19 µg/mL and the IC90 turned out to be 1.96 ± 0.03 µg/mL. In series [1] (setting [7]), the IC90 is less than 2 µg/mL.

For the molecule `CC1(N)CCCCC1` [Compound 641, 1-Amino-1-methylcyclohexane], the inhibition at 5 µg/mL in series [1] (Trypanosoma brucei, 72 h) was found to be 86%.

Regarding `CN(C)C1(C)CC(C)(C)CC(C)(C)C1` [Compound 642, N,N-dimethyl-1-amino-1,3,3,5,5-pentamethylcyclohexane], the inhibition at 5 µg/mL in series [1] (Trypanosoma brucei, 72 h) was 21%.

On to `CC1(C)CC(CCN)CC(C)(C)C1` [Compound 644, 2-(3,3,5,5-Tetramethylcyclohexyl)ethylamine], for which, in series [1] (setting [4]), the IC50 was 0.23 ± 0.02 µg/mL and the IC90 came to 0.31 ± 0.03 µg/mL.

In the case of `CC(C)(N)CC1CC(C)(C)CC(C)(C)C1` [Compound 645, 2-Methyl-1-(3,3,5,5-tetramethylcyclohexyl)propyl-2-amine], the IC50 in series [1] (setting [5]) was found to be 0.22 ± 0.02 µg/mL. Also, in series [1] (setting [6]), the IC90 came to 0.29 ± 0.01 µg/mL.

In the case of `CC1(C)CC(C)(C)CC(C)(CCN)C1` [Compound 662, 2-(1,3,3,5,5-Pentamethylcyclohexyl-1) ethylamine], in series [1] (setting [5]), the IC50 stood at 0.24 ± 0.03 µg/mL. Besides, in series [1] (setting [6]), the IC90 is given as 0.38 ± 0.08++ μg ml−1.

In the case of `Nc1nc(N)nc(Nc2ccc([As]3SCC(CO)S3)cc2)n1` (stereo not drawn) [Melarsoprol], the “patient mortality due to arsenic encephalopathy” value in series [2] was 5 to 10%.

For the molecule `CC(N)C12CC3CC(CC(C3)C1)C2` (stereo not drawn) [rimantadine], in series [3], the “sensitivity of bloodstream form T. brucei” value is “sensitive”.
